Reference: patent US12275958B2, “Gut organoid and method for producing the same” (DAI NIPPON PRINTING CO., LTD., priority 2017, dated 2025)

Experiments:
human gut organoids = experiment: In vitro β-Ala-Lys-AMCA uptake by human gut organoids; assay type: cell-based; settings: 25 μM, 4 hours at 37° C., fluorescence
Protocol: Gut organoids grown in the differentiation induction medium 2 were washed with PBS and cultured in DMEM containing 25 μM fluorophore-conjugated dipeptide β-Ala-Lys-AMCA (Biotrend Chemicals) for 4 hours at 37° C. […] All sample images were recorded under standard conditions. For each concentration, 3 independent assays were performed.

[1] = tested on: hESC-derived gut organoid showing peristalsis-like movement; experiment: In vitro contractility of human gut organoids (motile); assay type: cell-based; settings: 0.2 μM, aspect ratio from video; for frequency / rate of gut organoid contractile movement: days 80-90 in culture
Protocol: A single human embryonic stem cell (hESC)-derived gut organoid showing peristalsis-like movement (days 80-90 in culture) was treated with the peristaltic stimulator histamine (0.2 μM) and the cholinergic antagonist atropine sulfate (0.2 μM). Contractility responses were recorded using an inverted microscope. Image analysis software CL-Quant version 3.10 (Nikon Corporation) was used to visualize movements in the gut organoid. First, in each frame of the time-lapse images, the software was used to identify a specific region of the organoid. Second, the software fitted an ellipse to this region and calculated the ratio of the longest to shortest diameter to obtain an aspect ratio. Changes in the aspect ratios with time were plotted on the chart. Videos were recorded at 30 frames per second.

Compound	uptake (peptide absorption) of the fluorophore-conjugated dipeptide by gut organoids (human gut organoids)	uptake (peptide absorption) of the fluorophore-conjugated dipeptide by gut organoids (human gut organoids; listed as β-Ala-Lys-N(c)-7-amino-4-methylcoumarin-3-acetic acid)	contraction amplitude [1]	frequency / rate of gut organoid contractile movement [1]
Cc1c(CC(=O)NCCCC[C@H](NC(=O)CCN)C(=O)O)c(=O)oc2cc(N)ccc12 [β-Ala-Lys-AMCA, β-Ala-Lys-N(c)-7-amino-4-methylcoumarin-3-acetic acid]	capable of uptake	showed peptide absorption	–	–
CN1[C@@H]2CC[C@H]1CC(OC(=O)C(CO)c1ccccc1)C2.CN1[C@@H]2CC[C@H]1CC(OC(=O)C(CO)c1ccccc1)C2.O=S(=O)(O)O (some centres unmarked) [atropine, atropine sulfate]	–	–	decreased	decreased
NCCc1c[nH]cn1 [histamine]	–	–	–	increased
